Experiment: Solution stability of N-protected and C-protected amino acid
Assay type: physicochemical
Conditions: N-protected and C-protected amino acid (Fmoc-Leu condensed with the listed compound) in tetrahydrofuran and acetic acid, room temperature, three days; amount remaining (survival rate)
Procedure: The obtained N-protected and C-protected amino acid (10 mg) and 2,6-di-tert-butyl-4-methylphenol (internal standard: 8 mg) were dissolved in a tetrahydrofuran solution (20 mL) and acetic acid (2 mL), respectively, and after allowing time to pass at room temperature for three days, the amount of remaining N-protected and C-protected amino acid was determined and evaluated based on the following standard.
Regarding the evaluation of the solution stability, a case of “B” or higher was regarded as acceptable.
It can be said that, as the solution stability is higher, peptide stability is high, side reactions can be suppressed, and yield is excellent.
—Evaluation Standard— • “A”: survival rate was 99% or more. • “B”: survival rate was 97% or more and less than 99%. • “C”: survival rate was 95% or more and less than 97%. • “D”: survival rate was less than 95%.

Structure (SMILES)	Solution stability
CCCCCCCCCCCCCCCCCCCCCCOc1ccc(C(O)c2ccc(OCCCCCCCCCCCCCCCCCCCCCC)cc2)cc1 [Comparative compound (1-1)]	C (survival rate was 95% or more and less than 97%)
CCCCCCCCCCCCCCCCCCCCCCOc1cc(COc2ccc3cc(C(O)c4ccc(OC)cc4)ccc3c2)cc(OCCCCCCCCCCCCCCCCCCCCCC)c1 (centres unmarked) [Compound (1-2)]	A (survival rate was 99% or more)

Source: patent US20220112233A1, “METHOD FOR PRODUCING PEPTIDE COMPOUND, PROTECTIVE GROUP-FORMING REAGENT, AND CONDENSED POLYCYCLIC AROMATIC HYDROCARBON COMPOUND” (FUJIFILM CORPORATION, priority 2019, published 2022)
